Experimental data published in PubChem BioAssay (NCI).
Values joined by “and” are separate entries in the source; they are usually repeats but may differ in a detail not shown here. Identical values can stand only once.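 Test compounds were applied to cells in 96-well plates for 48 hours at 5 doses. Abbreviation: GI50, concentration required for 50% inhibition of growth. TGI marks complete inhibition of growth.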

Experiments:
Assay in all cases: NCI tumour cell line growth inhibition, 48 h
HOP-18 NSCLC = test system: HOP-18 NSCLC
DLD-1 colon = test system: DLD-1 colon
LXFL 529 NSCLC = test system: LXFL 529 NSCLC
KM20L2 colon = test system: KM20L2 colon
SNB-78 CNS = test system: SNB-78 CNS
NCI/ADR-RES ovarian = test system: NCI/ADR-RES ovarian
MDA-MB-435 = test system: MDA-MB-435
MDA-N = test system: MDA-N
RXF-631 renal = test system: RXF-631 renal

Compound | GI50 (NCI/ADR-RES ovarian) | TGI (NCI/ADR-RES ovarian) | GI50 (MDA-MB-435) | TGI (MDA-MB-435) | further results
Cc1ccc(NC(=O)OCC(COc2ccc(Cl)cc2Cl)OC(=O)Nc2ccc(C)cc2)cc1 (stereo unspecified) | – | – | – | – | TGI (HOP-18 NSCLC): > 100 µM; TGI (DLD-1 colon): > 100 µM; TGI (LXFL 529 NSCLC): > 100 µM; TGI (KM20L2 colon): > 100 µM; TGI (SNB-78 CNS): > 100 µM
CN(C)c1ccc(N=C2C=CC(=O)c3ccccc32)cc1 | 3.95 µM | 72.6 µM | 1.85 µM | 3.58 µM | –
CCN(CC)CCn1c2ccccc2c(=O)c2c(OC)ccc(OC)c21 | – | – | – | – | TGI (LXFL 529 NSCLC): > 100 µM; TGI (KM20L2 colon): > 100 µM; TGI (SNB-78 CNS): > 100 µM
CC1CC[P+](c2ccccc2)(c2ccccc2)CC1 | – | – | – | – | TGI (HOP-18 NSCLC): > 100 µM; TGI (DLD-1 colon): > 100 µM; TGI (LXFL 529 NSCLC): > 100 µM; TGI (KM20L2 colon): > 100 µM; TGI (SNB-78 CNS): > 100 µM
C=CCc1c(O)c(C(=O)/C=C/c2ccccc2)c(OC)c2ccoc12 | 1.88 µM | 4.91 µM | 2.78 µM | 10.9 µM | –
CCOC1CC2OC(=O)C1C=C2C(=O)OC (stereo unspecified) | – | – | – | – | TGI (HOP-18 NSCLC): > 100 µM; TGI (DLD-1 colon): 65.8 µM; TGI (LXFL 529 NSCLC): 36.1 µM; TGI (KM20L2 colon): > 100 µM; TGI (SNB-78 CNS): > 100 µM
COc1cc(/C=C/C(=O)c2c(C)nc3ccccc3c2C)ccc1OCCCN1CCN(C(=O)c2ccco2)CC1 | 5.55 µM | 45.2 µM | 4.55 µM | 19.8 µM | –
COc1cc(/C=C2\C[C@H]3[C@@H]4CC=C5C[C@@H](OC(C)=O)CC[C@]5(C)[C@H]4CC[C@]3(C)[C@H]2OC(C)=O)ccc1OCCN1CCCC1 | 10.2 µM | 20.6 µM | 13.3 µM | 27.2 µM | –
CN(C)c1ccc2nc(CC(O)(C(F)(F)F)C(F)(F)F)ccc2c1 | – | > 10 µM | – | > 10 µM | TGI (MDA-N): > 10 µM
CSc1ccc(C(=O)/C=C/c2ccccc2Cl)cc1 | 18.9 µM | 40.1 µM | 12.4 µM | 30.2 µM | –
O=c1c(Cl)cc2nc3ccccc3sc-2c1Cl | – | 56.9 µM | – | 7.8 µM | –
COc1ccc2nc(NC(=O)C(=O)NNC(=O)c3ccncc3)sc2c1 | – | – | – | – | TGI (HOP-18 NSCLC): > 100 µM; TGI (DLD-1 colon): > 100 µM; TGI (LXFL 529 NSCLC): > 100 µM; TGI (KM20L2 colon): > 100 µM; TGI (SNB-78 CNS): > 100 µM
C[Si](C)(C)C(Sc1ccccc1)(Sc1ccccc1)Sc1ccccc1 | – | – | – | – | TGI (DLD-1 colon): > 100 µM; TGI (LXFL 529 NSCLC): > 100 µM; TGI (KM20L2 colon): > 100 µM; TGI (SNB-78 CNS): > 100 µM
O=C1NC(c2cccc(OCc3ccccc3)c2)Nc2ccccc21 (stereo unspecified) | – | 0.468 µM | – | – | –
CC1=C([Se]CC(OC(=O)[C@@H](CO)NC(=O)OC(C)(C)C)C(=O)NCCCCCC(=O)OCc2ccccc2)C(=O)c2ccccc2C1=O (stereo partly specified) | – | – | 1.79 µM | 3.49 µM | –
COc1ccc2c(c1OC(C)=O)C1=CC(=O)CCC13CCNC3C2 (stereo unspecified) | – | > 100 µM | – | > 100 µM | TGI (MDA-N): > 100 µM
C1C[OH+]CC[OH+]CCNCC[OH+]CC[OH+]CCN1.Cl.[Cl-].[Pt+4] | – | – | – | – | GI50 (HOP-18 NSCLC): > 100 µM; TGI (HOP-18 NSCLC): > 100 µM; GI50 (DLD-1 colon): > 100 µM; TGI (DLD-1 colon): > 100 µM; GI50 (LXFL 529 NSCLC): > 100 µM; TGI (LXFL 529 NSCLC): > 100 µM; GI50 (KM20L2 colon): > 100 µM; TGI (KM20L2 colon): > 100 µM
CN1CCN(Cc2cc(NC(=O)c3cccc(C#Cc4cccc5[nH]nc(N)c45)c3)cc(C(F)(F)F)c2)CC1 | 2.02 µM | 4.2 µM | 1.48 µM | 2.9 µM | –

Compound | GI50 (NCI/ADR-RES ovarian) | TGI (NCI/ADR-RES ovarian) | GI50 (MDA-MB-435) | TGI (MDA-MB-435) | further results
C/C(=N/N=C(N)N)c1ccc(NC(=O)Nc2ccc(/C(C)=N/N=C(N)N)cc2)cc1 | 18 µM | > 100 µM | 16 µM | > 83.8 µM | –
CCn1ccc(NS(=O)(=O)c2ccc(N)cc2)nc1=O | > 100 µM | > 100 µM | > 100 µM | > 100 µM | –
CC1(C)N=C(N)N=C(N)N1c1cccc(Br)c1 | > 63.5 µM | > 100 µM | 0.0612 µM | > 100 µM | –
COc1ccc2c(c1)C(=O)c1c-2c(Nc2cccc(C(C)=O)c2)nc2ccccc12 | 8.66 µM | 28.3 µM | 30.8 µM | > 100 µM | –
COCc1c(-c2ccc(NC(=O)Nc3cc(C(F)(F)F)ccc3F)c(F)c2)c2c(N)ncnn2c1CN1CCOCC1 | 3.12 µM | > 10 µM | 1.93 µM | > 10 µM | –
C[C@@H](Oc1cc(-n2cnc3ccc(OC[C@@H](O)CO)cc32)sc1C(N)=O)c1ccccc1Cl | 1.64 µM | > 25 µM | – | – | –
O=C(O[C@H]1CCN2C[C@H]3C[C@H](CN4C(=O)CCC[C@H]34)[C@@H]2C1)c1ccc(O)cc1 | – | – | – | > 100 µM | TGI (MDA-N): > 100 µM
Cc1ccc(S(=O)(=O)Nc2ccc(-c3cc(-c4cccc(F)c4)c(C#N)c(N)n3)cc2)cc1 | 2.92 µM | 10.8 µM | 2.02 µM | 4.46 µM | –
CCCCCCCCCCCCCB(O)O | – | – | – | – | GI50 (HOP-18 NSCLC): > 100 µM and 25.9 µM; TGI (HOP-18 NSCLC): > 100 µM; TGI (DLD-1 colon): > 100 µM; TGI (LXFL 529 NSCLC): > 100 µM; TGI (KM20L2 colon): > 100 µM; TGI (SNB-78 CNS): > 100 µM
Cc1cc(=O)oc2cc(OC/C=C3\CCC(=O)O3)ccc12 | 23 µM | 82.9 µM | 7.23 µM | 40.9 µM | –
C=CCN(N=O)C(=O)NCCCCC(NC(C)=O)C(=O)NCc1ccccc1 (stereo unspecified) | – | – | – | – | TGI (RXF-631 renal): > 100 µM; TGI (HOP-18 NSCLC): > 100 µM; TGI (LXFL 529 NSCLC): > 100 µM; TGI (KM20L2 colon): > 100 µM
Nc1ncnc2c1ccn2[C@@H]1O[C@H]([C@H](O)c2ccc(Cl)c(F)c2)[C@@H](O)[C@H]1O | > 100 µM | > 100 µM | > 100 µM | > 100 µM | –
FC(F)(F)c1cc(Nc2ccc3cc(OCCCN4CCOCC4)ccc3n2)ccc1Cl | 2.69 µM | 18 µM | 1.75 µM | 3.61 µM | –
O=C(/C=C/OC(=O)c1cccc(Cl)c1)c1ccc(Cl)cc1 | 63.9 µM | > 100 µM | 44.6 µM | > 100 µM | –
O=C(O)Cc1cccc2c(=O)c3cccc([N+](=O)[O-])c3oc12 | – | – | – | > 100 µM | TGI (MDA-N): > 100 µM
C[CH2][Sn]([CH2]C)([O]C(=O)c1ccc(OC)c(OC)c1OC)[O]C(=O)c1ccc(OC)c(OC)c1OC | > 100 µM | > 100 µM | > 100 µM | > 100 µM | GI50 (HOP-18 NSCLC): 18.7 µM; TGI (HOP-18 NSCLC): 32.7 µM; GI50 (MDA-N): > 100 µM; TGI (MDA-N): > 100 µM; GI50 (LXFL 529 NSCLC): 12.6 µM; TGI (LXFL 529 NSCLC): 25.3 µM; GI50 (KM20L2 colon): > 100 µM; TGI (KM20L2 colon): > 100 µM
C/C(=N/Nc1nc(C)cc(=O)[nH]1)C(=O)O | – | > 100 µM | – | > 100 µM | TGI (MDA-N): > 100 µM
